The record followed here is patent US20170327786A1 (Biogen MA Inc., priority 2014, published 2017).

Like-named read-outs stand apart in the source and are kept apart here.

The test system of test [1] is Cell Line B. As to the kind of experiment: Fed-batch culture of Cell Line B with hypotaurine feed medium. Format: cell-based. The method, then:
The control feed medium contained 0 mM hypotaurine. The hypotaurine feed medium contained 8 mM hypotaurine. […] The concentration of hypotaurine in the bioreactor on Day 16 was approximately 2.7 mM. […] Initial cell density was one million cells (1e6). The effects of hypotaurine were evident starting on Day 10.

Test [2] deals with Cell Line B. As to the kind of experiment: Alternative antioxidants as replacement for hypotaurine, Cell Line B waste accumulation and culture performance. Type of test: cell-based. The method, then: Taurine is the by-product of hypotaurine metabolism. Therefore, cell culture performance when 8 mM taurine was added to the feed medium was compared to cell culture performance when 8 mM of hypotaurine was added to the feed medium. Initial cell density was one million cells (1e6).
Cysteamine is a precursor of hypotaurine. […] Initial cell density was one million cells (1e6). The effects of glutathione, another type of antioxidant, were also explored.

In the next test the test system is CHO cells. Put plainly: Fed-batch culture of CHO cells with GABA-supplemented feed medium. Format: cell-based, Chinese hamster. The method, then: The impact of gamma-aminobutyric acid (GABA) levels in the culture on cell density (growth), viability, and lactate concentration was evaluated in CHO cells in a fed-batch process (FIG. 9).
Cryopreserved CHO cells were thawed and maintained in 500 mL, 1000 mL or 3000 mL shake flasks with 100 mL, 200 mL or 1000 mL working volumes using cell culture medium CM3 and were passaged every 2 to 4 days. For maintenance cultures, the incubator was controlled at 36° C. and 5% CO2. A 5 liter (L) glass Applikon vessels using Finesse TruBio DV controllers (Finesse Solutions, San Jose, Calif.) were used for the fed-batch process. Bioreactors were seeded with an initial working volume of 2.5 L at a constant seed. For the control process, feed medium, CF2b, was given on day 3, day 5 and daily thereafter (starting on day 6) until the day before harvest and culture termination. The control process lasted 15 days with harvest and culture termination on day 15. CF2b is designated as a complete feed, comprised of all necessary nutritional elements including glucose, amino acids, vitamins, and metals. For GABA culture, feed medium was supplemented with 8 mM of GABA. The GABA culture lasted 17 days with harvest and culture termination on day 17. The complete feed amount was calculated as a predetermined fixed percentage based on culture volume. Glucose is maintained by the feeding strategy above 2 g/L in general by the bolus feeds and is not limiting. Culture temperature was set at 35° C. and medium pH was controlled at 7.1±0.2 by the addition of either 1 M sodium carbonate or CO2 gas. Dissolved oxygen (DO) was maintained at 30% with air sparge, enriched with oxygen as necessary, through a drilled hole sparger. Agitation was maintained between 200 and 400 rpm throughout the culture to limit total gas flow. An air overlay was maintained between 0.005 and 0.02 gas volume flow per unit of liquid volume per minute (vvm).

The next test concerns Cell Line A. The procedure: Cell Line A expressed the polypeptide Neublastin. […] Feed medium was added daily from Day 2 to Day 12 to the cell culture. […] Initial cell density was one million cells (1e6).
For test [3], the system named is Cell Line B. The procedure: Cell Line B expressed the polypeptide Lingo. […] Feed medium was added daily from Day 1 to Day 15 to the cell culture. […] Initial cell density was one million cells (1e6).
The subject of test [4] is Cell Line B. The source holds these as a separate data set.
Setting [5] is: 8 mM hypotaurine feed medium vs control feed with 0 mM hypotaurine.
Where [6] appears, read: feed medium supplemented with 8 mM GABA vs control.
Where [7] appears, read: 9 mM choline chloride feed medium vs control feed with 3 mM choline chloride.
Where [8] appears, read: 18 mM choline chloride feed medium vs control feed with 3 mM choline chloride.

For `NCCS(=O)O` [Hypotaurine, hypotaurine], the “day from which the effects were evident” value with Cell Line B [1] (8 mM hypotaurine feed medium) was 10 days. In addition, in the test on Cell Line B [1] (setting [5]), the ammonium accumulation entry was “lower”, the titer result was “higher” and the viability entry was “higher”. In addition, the “growth (cell density)” value with Cell Line B [1] (8 mM hypotaurine feed medium vs control feed with 0 mM hypotaurine, fed daily Day 1 to Day 15) was “higher”. In addition, in the test with Cell Line B [1] (hypotaurine used alone, concentration in culture on Day 10, when effects became evident), the “Day 10 (Effective) Hypotaurine Conc.” value is listed as 2.5 mM.
On to `N[C@@H](CCC(=O)N[C@@H](CS)C(=O)NCC(=O)O)C(=O)O` [glutathione], for which, in the test on Cell Line B [2] (1.3 mM glutathione/18 mM choline chloride in feed vs 8 mM hypotaurine and 18 mM choline chloride), the “cell culture performance (growth, viability, ammonium concentration, titer) as replacement for hypotaurine” value (“cell culture performance” below) is recorded as “not able to serve as replacements for hypotaurine”.
Regarding `NCCCC(=O)O` [GABA, Gamma-Aminobutyric Acid], the “growth (viable cell density)” value in the test on CHO cells (feed medium CF2b supplemented with 8 mM GABA vs unsupplemented control feed) is on record as “higher”. Also, the “delay of the onset of a high lactate phenotype compared to control” value in the test on CHO cells (feed medium supplemented with 8 mM GABA) is “about 2 days”. In the test with CHO cells (setting [6]), the lactate accumulation result is listed as “lower” and the viability result is “higher”. Moreover, in the test on CHO cells (feed medium supplemented with 8 mM GABA, control process lasted 15 days), the “culture duration (harvest and culture termination)” value was determined as 17 days.
With `NCCS` [Cysteamine, cysteamine], the “cell culture performance” value in the test on Cell Line B [2] (3 mM cysteamine/18 mM choline chloride in feed vs 8 mM hypotaurine and 18 mM choline chloride) is recorded as “not able to serve as replacements for hypotaurine”.
Regarding `C[N+](C)(C)CCO.[Cl-]` [Choline, choline chloride], the “day from which the effects were evident” value with Cell Line A (9 mM choline chloride feed medium) is 3 days; with Cell Line B [3] (18 mM choline chloride feed medium), 9 days. Moreover, the ammonium accumulation result in the test on Cell Line A (setting [7]) and in the test with Cell Line B [3] (setting [8]) was “lower” in each case. Moreover, the viability result with Cell Line A (setting [7]) and with Cell Line B [3] (setting [8]) was “higher” in each case. Also, the titer entry in the test with Cell Line A (9 mM choline chloride feed medium vs control feed with 3 mM choline chloride, Neublastin) is “higher”; in the test on Cell Line B [3] (18 mM choline chloride feed medium vs control feed with 3 mM choline chloride, Lingo) it was “slightly higher”. Further, the “growth (cell density)” value in the test with Cell Line A (9 mM choline chloride feed medium vs control feed with 3 mM choline chloride, fed daily Day 2 to Day 12) is “higher”; in the test with Cell Line B [3] (18 mM choline chloride feed medium vs control feed with 3 mM choline chloride, fed daily Day 1 to Day 15), “higher”. Moreover, the “Day 3 (Effective) Choline Conc.” value with Cell Line A (concentration in culture on Day 3, when effects became evident) was found to be 0.90 mM. Moreover, the “Day 9 (Effective) Choline Conc.” value in the test with Cell Line B [3] (choline used alone, concentration in culture on Day 9, when effects became evident) came out at 4.65 mM. Moreover, the “Effective Choline Conc.” value with Cell Line B [4] (Day 6, high seed) is recorded as 4.0 mM. For the same compound, the culture viability crash result with Cell Line B [4] (high seed 8×10^6 vc/mL, after day 12) is reported as “occurred after day 12”.
For the compound `NCCS(=O)(=O)O` [taurine], the “cell culture performance” value in the test on Cell Line B [2] (8 mM taurine in feed medium vs 8 mM hypotaurine in feed medium) is “not able to serve as a replacement for hypotaurine”.
